Test results from ChEMBL document CHEMBL1156829 (Proc Natl Acad Sci U S A, 2008).

Tests used:
[1] = NOVARTIS: Cytotoxicity against human hepatocellular carcinoma cell line (Huh7); type: toxicity, cell-based, Huh-7; conditions: Huh7 cells (hepatocellular carcinoma cell line)
Plasmodium falciparum [2] = assay: NOVARTIS: Inhibition of Plasmodium falciparum 3D7 (drug-susceptible) proliferation in erythrocyte-based infection assay; type: functional, organism-based; conditions: Plasmodium falciparum, 3D7
Plasmodium falciparum [3] = assay: NOVARTIS: Inhibition of Plasmodium falciparum W2 (drug-resistant) proliferation in erythrocyte-based infection assay; type: functional, organism-based; conditions: Plasmodium falciparum, W2; read-out: EC50

Structure (SMILES) | CC50 [1] [nM] | EC50 (Plasmodium falciparum [2]) [nM] | EC50 (Plasmodium falciparum [3]) [nM]
COC(=O)COc1ccc(/C=C2/SC(=Nc3ccc(F)cc3)NC2=O)cc1 | > 100000 | > 12500 | 1850
CCN(CC)CCNc1ccc(Nc2ccnc3cc4ccccc4cc23)cc1 | 2360 | 28.2 | 41.7
Nc1ccc2nc(C=Cc3ccc(Cl)cc3)[nH]c2c1 | 6900 | 580 | 122
c1ccc2cc3c(Nc4ccc(N5CCCCC5)cc4)ccnc3cc2c1 | 67700 | 743 | 1220
O=S(=O)(Oc1ccc2ccccc2c1Cc1c(OS(=O)(=O)c2ccccc2)ccc2ccccc12)c1ccccc1 | > 100000 | > 12500 | 1840
O=C(C1CCN(c2nnnn2-c2ccccc2)CC1)N1CCc2ccccc2C1 | > 100000 | 1300 | 1790
CCN1CCC(NCCC(c2ccccc2)c2ccccc2)CC1 | 3610 | 280 | 66
N#Cc1ccccc1N1CCCCC1 | > 100000 | > 10800 | 1790
O=c1c2ccccc2[nH]c2cc(Cl)ccc12 | > 10000 | 95.5 | 178
OCCSc1nc(-c2ccccc2)nc2ccc(F)cc12 | > 10000 | > 1250 | > 183
Cc1cc(C)cc(NCC(O)Cn2c3ccc(Cl)cc3c3cc(Cl)ccc32)c1 (stereo not given) | 31200 | 2220 | 569
COCCSc1nc2sc3c(c2c(=O)n1-c1ccc(OC)cc1)CCN(C)C3 | > 100000 | 3020 | 1770
C=CCSc1ncc(-c2ccc(Cl)cc2)n1C | > 100000 | > 12500 | 1770
Oc1ccc(Cl)cc1CNc1nc2ccccc2[nH]1 | 43500 | 921 | 768
O=C(Nc1ccc(-c2nc3ccccc3[nH]2)cc1)c1ccc(Cl)c(Cl)c1 | > 100000 | 523 | 1820
Cc1cc(C)c(NC(=S)N(CCCN2CCCCC2)Cc2cccs2)c(C)c1 | > 10000 | > 1540 | 179
O=C1c2ccc3c4c(ccc(c24)C(=O)N1CCCCO)C(=O)N(CCCCO)C3=O | 4380 | 354 | 77.4
CC1(C)N=C(N)N=C(N)N1c1ccc(Oc2ccc(Cl)cc2)c(Cl)c1 | 35100 | 58 | 628
Cc1ccc(-n2nnnc2SCc2nc(-c3cccc([N+](=O)[O-])c3)no2)c(C)c1 | > 100000 | > 4690 | 1850
N#Cc1c(N)nc(SCC(=O)c2ccc([N+](=O)[O-])cc2)c(C#N)c1-c1ccccc1 | > 100000 | 4810 | 1840
CCCS(=O)(=O)c1c(S(=O)(=O)CCC)c2ccc(C(C)=O)cn2c1C(=O)c1ccc(C)cc1 | > 100000 | > 12500 | 1830
C=CCn1c(SCC(=O)Nc2ccccc2C)nc2sc(C)cc2c1=O | > 100000 | 4280 | 1800
CCOC(=O)c1ccc(NC(=O)c2ccc3nc(NC(=O)c4ccc(C(=O)OC)cc4)sc3c2)cc1 | > 100000 | > 6510 | 1800
COc1ccc(NC(=O)Cn2c(C)c(C=O)c3ccccc32)cc1 | > 100000 | 1450 | 1770
CCCCCCCCC(=O)N(C)CCCNc1ccnc2cc(Cl)ccc12 | > 10700 | 321 | 196
CN(C)c1ccc(C=C2SC(=N)N(c3nccs3)C2=O)cc1 | > 100000 | 5050 | 1830
COc1ccc(-n2c(SC(C)C)nc3sc4c(c3c2=O)CCN(C)C4)cc1 | > 100000 | 2210 | 1850
CC(C)Cc1ccc(-c2csc(NC(=O)C3C4CCC(C4)C3C(=O)O)n2)cc1 (stereo not given) | > 100000 | 772 | 1850

Structure (SMILES) | CC50 [1] [nM] | EC50 (Plasmodium falciparum [2]) [nM] | EC50 (Plasmodium falciparum [3]) [nM]
C=CCn1c(SCC(=O)c2cc(C)n(-c3ccccc3F)c2C)nc2sc3c(c2c1=O)CCCC3 | > 10000 | > 1250 | > 180
CCOC(=O)C1(CC2CCCCO2)CCN(Cc2cccc(C)n2)CC1 (stereo not given) | > 100000 | > 8370 | 1780
COc1ccc2c(c1)C(=NN=C(N)N)c1cc(OC)ccc1-2 | > 10000 | 123 | 178
CC1CCCCN1CCCN(Cc1c2ccccc2cc2ccccc12)C(=O)c1ccccc1Cl (stereo not given) | > 1740 | 878 | 31.2
O=C(Nc1cccc(C2=NCCN2)c1)c1ccc(C(=O)Nc2cccc(C3=NCCN3)c2)cc1 | > 10000 | 599 | 178
COc1cc2nc(Nc3cccc(F)c3)nc(N)c2cc1OC | 20100 | 148 | 358
O=C(Nc1cnc2ccccc2c1)c1cccc(-n2cnnn2)c1 | > 10000 | 174 | 182
Cc1nc2ccc(NC(=O)C3CC3)cc2c(=O)n1Cc1ccc(Cl)cc1 | > 100000 | 1170 | 1820
Oc1ccc(Br)c(C(Nc2ccccn2)c2ccc3cccnc3c2O)c1 (stereo not given) | 15700 | 555 | 281
CCCCCCN(C(=O)c1cccc(OC)c1)C(CC)c1nc2ccccc2c(=O)n1-c1ccc(Cl)cc1C (stereo not given) | > 10000 | 1120 | > 178
COC(=O)C1=C(C)NC2=C(C(=O)c3ccccc32)C1c1ccc(OCC#N)c(OC)c1 (stereo not given) | 84900 | 590 | 1530
Cc1cc2c(cc1C)NC(c1ccccc1F)C1=C(CC(C)(C)CC1=O)N2 (stereo not given) | > 100000 | 1650 | 1790
C[N+](C)(C)c1nc(N2CCOCC2)nc(N(c2ccccc2)c2ccccc2)n1 | > 10000 | 63.2 | 179
Cc1nc2ccccn2c1C1(O)C(=O)Nc2c(Cl)cc(Cl)cc21 (stereo not given) | > 10000 | 449 | 178
CSc1ccc(NC(=O)N2CCCn3cccc3C2c2ccc(C(F)(F)F)cc2)cc1 (stereo not given) | > 100000 | 3990 | 1810
COc1ccc(C(C)=O)cc1N1C(=O)C2C(C1=O)C1(c3ccccc3)C(=O)C2(c2ccccc2)C(c2ccc(C)cc2)=C1c1ccc(C)cc1 (stereo not given) | > 100000 | 2460 | 1800
CC(=O)Nc1ccc(S(=O)(=O)NC2C(C)(C)C3CC[C@]2(C)C3)cc1 (stereo not given in full) | > 10000 | > 1250 | > 184
CCOC(=O)CCC(=O)Oc1cc(C(C)(C)C)nn1-c1ccc(Cl)c(Cl)c1 | > 11100 | > 1230 | 203
Cc1ccc(C2C3=C(CC(C)(C)CC3=O)N(Cc3ccc4c(c3)OCO4)C3=C2C(=O)CC(C)(C)C3)cc1 | > 100000 | 3750 | 1770
CCOc1ccc(C(=O)C(C)[n+]2cc(-c3ccc(OC)cc3)n3c2CCC3)cc1 (stereo not given) | 33200 | 506 | 595
C=CCc1c(C)nc2ccc(Br)cc2c1O | > 100000 | 1600 | 1780
CCOC(=O)CCC(=O)Oc1ccccc1-c1nc2ccccn2c1NC(C)(C)CC(C)(C)C | > 10000 | 1060 | 178
Cc1cccc(N2C(N)=NC(N)=NC2(C)C)c1 | 2980 | 20.2 | 52.8
COc1ccc(OC)c(C(C(=O)NC2CCCC2)N(C(=O)c2snc(C(N)=O)c2N)c2ccccc2OC)c1 (stereo not given) | > 100000 | 2540 | 1790
CC(Nc1ccccc1)C(=O)Nc1cc(C(F)(F)F)ccc1Cl (stereo not given) | 71400 | 1220 | 1290
Cc1cccc(-c2nc3cc(NC(=S)NC(=O)c4ccc(Cl)cc4)ccc3o2)c1 | > 10000 | > 1660 | 183
CC(Cc1ccccc1)NCCCCCCCNC(C)Cc1ccccc1 (stereo not given) | 5900 | 268 | 105
